Assay results taken from patent EP4603546A1, “SOLID DISPERSION CONTAINING SUBSTANCE TO BE DISPERSED, PHARMACEUTICAL COMPOSITION CONTAINING SAME, AND PRODUCTION METHODS THEREFOR” (CHUGAI SEIYAKU KABUSHIKI KAISHA, priority 2022, dated 2024).
Values after ≈ are worked out from the molar mass of the structure shown. Numbered stars: 1 amine (or outer) side, 2 acyl side, 3 side chain; on linkers, the order of the positions; unused ones are H or OH. Bridge positions count the residues as written; N and C are the ends. Square brackets hold non-standard residues; d marks the D form. Peptide text beside a SMILES is read from it. * marks the point of attachment. hPhe(3,5-F2-4-CF3) = N[C@@H](CCc1cc(F)c(C(F)(F)F)c(F)c1)C(=O)O; hPhe(3-Cl-4-CF3) = N[C@@H](CCc1ccc(C(F)(F)F)c(Cl)c1)C(=O)O; NMePhe(4-CF3) = CN[C@@H](Cc1ccc(C(F)(F)F)cc1)C(=O)O; NEtPhe(4-Me) = CCN[C@@H](Cc1ccc(C)cc1)C(=O)O; NMePhe(4-Me) = CN[C@@H](Cc1ccc(C)cc1)C(=O)O; NMedβ3hAla = C[C@H](CC(=O)[*:2])N(C)[*:1]; NMeGly(cPent) = CN[C@H](C(=O)O)C1CCCC1; Pro(4,4-F2) = O=C(O)[C@@H]1CC(F)(F)CN1; NMeGly(cBu) = CN[C@H](C(=O)O)C1CCC1; NMeCha = CN[C@@H](CC1CCCCC1)C(=O)O; Hyp = O=C(O)[C@@H]1C[C@@H](O)CN1; NMeChg = CN[C@H](C(=O)O)C1CCCCC1; NMeI = CC[C@H](C)[C@H](NC)C(=O)O; NMeD = CN[C@@H](CC(=O)O)C(=O)O; NMeL = CN[C@@H](CC(C)C)C(=O)O; NMeA = CN[C@@H](C)C(=O)O; Pyrrolidide = C1CCN(*)C1; Ac5c = NC1(C(=O)O)CCCC1; Aze = O=C(O)[C@@H]1CCN1; Sar = CNCC(=O)O

Assay: physchem
Conditions: pH 6.5, aqueous buffer
Method: Solubility (unit: mg/mL) was calculated from the measured compound concentration. The HPLC conditions are as follows. Detector: ultraviolet absorption photometer (measurement wavelength: 230 nm) Column: stainless steel tube of 2.1 mm inner diameter, 5 cm long filled with 1.7 µm ethylene cross-linked hybrid particles for liquid chromatography Column temperature: constant temperature near 70°C Mobile phase A: water/trifluoroacetic acid mixed solution (2000/1) Mobile phase B: acetonitrile/trifluoroacetic acid mixed solution (2000/1) Liquid delivery of mobile phase: concentration gradient control by changing the mixing ratio of mobile phase A and mobile phase B as shown in Table 8 below [Table 8]

For `CC[C@H](C)[C@@H]1NC(=O)[C@H](CC(C)C)N(C)C(=O)C[C@@H](C(=O)N2CCCC2)N(C)C(=O)[C@H]([C@@H](C)CC)N(C)C(=O)C2(CCCC2)NC(=O)[C@@H]2CCCN2C(=O)[C@H](CCc2ccc(C(F)(F)F)c(Cl)c2)NC(=O)CN(C)C(=O)[C@H](Cc2ccc(C)cc2)N(C)C(=O)[C@@H]2CCN2C(=O)[C@H](C)N(C)C1=O` [Compound III] ([NMeL]I[NMeA][Aze][NMePhe(4-Me)][Sar][hPhe(3-Cl-4-CF3)]P[Ac5c][NMeI][NMeD]-Pyrrolidide; lactam N-11), the solubility thermodynamic was 10 µg/mL (≈ 6.96 µM).

`CCO[C@@H]1C[C@H]2C(=O)NC3(CCCC3)C(=O)N(C)[C@@H]([C@@H](C)CC)C(=O)N(C)[C@H](C)CC(=O)N(C)[C@@H](CC(C)C)C(=O)N[C@@H]([C@@H](C)CC)C(=O)N(C)[C@@H](C)C(=O)N3CC[C@H]3C(=O)N(C)[C@@H](Cc3ccc(C(F)(F)F)cc3)C(=O)N(C)CC(=O)N[C@@H](CCc3ccc(C(F)(F)F)c(Cl)c3)C(=O)N2C1` [Compound II] (cyclo([Ac5c][NMeI][NMedβ3hAla][NMeL]I[NMeA][Aze][NMePhe(4-CF3)][Sar][hPhe(3-Cl-4-CF3)][Hyp](Et))) gave a solubility thermodynamic of 1 µg/mL (≈ 0.689 µM).

`CC[C@H](C)[C@@H]1NC(=O)[C@H](CC(C)C)N(C)C(=O)C[C@@H](C(=O)N(C)C)N(C)C(=O)[C@H]([C@@H](C)CC)N(C)C(=O)C2(CCCC2)NC(=O)[C@@H]2CCCN2C(=O)[C@H](CCc2ccc(C(F)(F)F)c(Cl)c2)NC(=O)CN(C)C(=O)[C@H](Cc2ccc(C)cc2)N(C)C(=O)[C@@H]2CCN2C(=O)[C@H](C)N(C)C1=O` [Compound IV] ([NMeL]I[NMeA][Aze][NMePhe(4-Me)][Sar][hPhe(3-Cl-4-CF3)]P[Ac5c][NMeI][NMeD]-NMe2; lactam N-11) gave a solubility thermodynamic of 20 µg/mL (≈ 14.2 µM).

In the case of `CC[C@H](C)[C@@H]1NC(=O)[C@H](CC(C)C)N(C)C(=O)C[C@@H](C(=O)N(C)C)N(C)C(=O)[C@H](C2CCCC2)N(C)C(=O)C2(CCCC2)NC(=O)[C@@H]2CCCN2C(=O)[C@H](CCc2cc(F)c(C(F)(F)F)c(F)c2)NC(=O)CN(C)C(=O)[C@H](Cc2ccc(C)cc2)N(CC)C(=O)[C@@H]2CCN2C(=O)[C@H](C)N(C)C1=O` [Compound I] ([NMeL]I[NMeA][Aze][NEtPhe(4-Me)][Sar][hPhe(3,5-F2-4-CF3)]P[Ac5c][NMeGly(cPent)][NMeD]-NMe2; lactam N-11), the solubility thermodynamic is reported as < 1 µg/mL.

For `CC[C@H](C)[C@@H]1NC(=O)[C@H](C2CCC2)N(C)C(=O)C[C@@H](C(=O)N2CCCC2)N(C)C(=O)[C@H](C2CCCCC2)N(C)C(=O)C2(CCCC2)NC(=O)[C@@H]2CC(F)(F)CN2C(=O)[C@H](CCc2cc(F)c(C(F)(F)F)c(F)c2)NC(=O)CN(C)C(=O)[C@H](CC2CCCCC2)N(C)C(=O)CN(C)C(=O)CN(C)C1=O` [Compound V] ([NMeGly(cBu)]I[Sar][Sar][NMeCha][Sar][hPhe(3,5-F2-4-CF3)][Pro(4,4-F2)][Ac5c][NMeChg][NMeD]-Pyrrolidide; lactam N-11), the solubility thermodynamic was < 1 µg/mL.
